Measured values published in ChEMBL document CHEMBL1132082, “Nonsteroidal androgen receptor agonists based on 4-(trifluoromethyl)-2H-pyrano[3,2-g]quinolin-2-one” (Bioorg Med Chem Lett, 1999).

Tests used:
Androgen receptor [1] = target: T1, Androgen receptor (Homo sapiens, UniProt P10275); test: biochemical
T1 sequence (P10275 whole entry): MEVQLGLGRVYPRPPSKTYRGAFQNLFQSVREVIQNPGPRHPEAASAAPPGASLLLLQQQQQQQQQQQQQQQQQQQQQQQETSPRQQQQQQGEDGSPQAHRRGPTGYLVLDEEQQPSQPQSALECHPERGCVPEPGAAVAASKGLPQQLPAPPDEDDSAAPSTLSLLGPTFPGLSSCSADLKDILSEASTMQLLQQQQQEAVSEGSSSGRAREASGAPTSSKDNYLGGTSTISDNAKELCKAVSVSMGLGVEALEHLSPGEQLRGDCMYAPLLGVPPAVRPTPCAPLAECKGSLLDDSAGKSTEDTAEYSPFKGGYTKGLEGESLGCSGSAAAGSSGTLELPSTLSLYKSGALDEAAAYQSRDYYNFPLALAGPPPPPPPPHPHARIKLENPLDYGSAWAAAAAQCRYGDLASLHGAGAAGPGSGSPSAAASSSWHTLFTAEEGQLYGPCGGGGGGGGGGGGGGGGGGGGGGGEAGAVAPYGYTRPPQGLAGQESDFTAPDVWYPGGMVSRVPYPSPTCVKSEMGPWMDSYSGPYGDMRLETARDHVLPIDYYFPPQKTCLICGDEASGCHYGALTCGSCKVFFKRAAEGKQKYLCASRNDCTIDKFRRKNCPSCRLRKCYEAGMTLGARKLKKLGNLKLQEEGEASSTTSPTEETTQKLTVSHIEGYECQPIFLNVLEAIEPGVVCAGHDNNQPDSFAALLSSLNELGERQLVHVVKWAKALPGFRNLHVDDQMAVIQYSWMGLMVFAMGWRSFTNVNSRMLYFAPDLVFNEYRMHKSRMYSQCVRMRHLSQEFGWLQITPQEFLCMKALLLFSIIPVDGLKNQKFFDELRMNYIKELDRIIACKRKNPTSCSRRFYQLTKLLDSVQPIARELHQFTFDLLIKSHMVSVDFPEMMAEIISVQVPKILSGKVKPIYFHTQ
Description: In vitro binding affinity at human androgen receptor transfected into COS cells.

Androgen receptor [2] = target: T1, Androgen receptor
Description: In vitro agonistic activity against human androgen receptor using cotransfection assay in CV-1 cells.

Estrogen receptor [3] = target: T2, Estrogen receptor (Homo sapiens, UniProt Q92731+P03372); test: In vitro antagonistic activity against human estrogen receptor (hER); not active; assay type: functional
Estrogen receptor [4] = target: T2, Estrogen receptor; test: In vitro antagonistic activity against human estrogen receptor (hER); assay type: functional
[5] = target: T3, Progesterone receptor (Homo sapiens) (UniProt P06401); test: (§1) In vitro antagonistic activity against human progesterone receptor (hPR); assay type: functional
T3 sequence (whole entry): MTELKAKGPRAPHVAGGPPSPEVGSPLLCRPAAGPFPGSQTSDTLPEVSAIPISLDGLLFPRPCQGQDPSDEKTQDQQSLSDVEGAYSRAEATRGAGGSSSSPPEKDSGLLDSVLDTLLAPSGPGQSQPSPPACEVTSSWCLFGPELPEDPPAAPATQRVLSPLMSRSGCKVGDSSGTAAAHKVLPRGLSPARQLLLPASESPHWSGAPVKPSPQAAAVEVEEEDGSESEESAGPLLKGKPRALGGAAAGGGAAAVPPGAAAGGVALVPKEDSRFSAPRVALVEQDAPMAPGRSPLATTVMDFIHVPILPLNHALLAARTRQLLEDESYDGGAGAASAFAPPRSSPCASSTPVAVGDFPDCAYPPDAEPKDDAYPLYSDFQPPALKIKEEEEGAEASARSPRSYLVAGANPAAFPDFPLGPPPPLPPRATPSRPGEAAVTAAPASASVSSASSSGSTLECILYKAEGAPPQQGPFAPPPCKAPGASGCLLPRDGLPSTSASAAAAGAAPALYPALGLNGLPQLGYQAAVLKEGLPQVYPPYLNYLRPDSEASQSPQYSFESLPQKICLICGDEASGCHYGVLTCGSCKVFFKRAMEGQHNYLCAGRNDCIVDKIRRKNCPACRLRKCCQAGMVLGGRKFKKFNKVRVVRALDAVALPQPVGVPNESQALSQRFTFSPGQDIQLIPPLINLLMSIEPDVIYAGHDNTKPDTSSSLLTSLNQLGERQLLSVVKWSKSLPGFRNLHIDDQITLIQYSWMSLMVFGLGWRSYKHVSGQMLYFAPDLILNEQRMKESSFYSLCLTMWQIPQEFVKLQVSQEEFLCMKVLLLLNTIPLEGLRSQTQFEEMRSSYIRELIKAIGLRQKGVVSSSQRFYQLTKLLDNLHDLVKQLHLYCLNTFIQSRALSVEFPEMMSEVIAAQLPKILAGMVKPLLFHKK

Progesterone receptor = target: T4, Progesterone receptor (Homo sapiens, UniProt P06401); test: as §1; assay type: functional
T4 sequence (P06401 whole entry): T3 sequence (whole entry)

Androgen receptor [6] = target: T1, Androgen receptor; remark: listed apart in the source
Glucocorticoid receptor = target: T5, Glucocorticoid receptor (Homo sapiens, UniProt P04150); test: In vitro antagonistic activity against human glucocorticoid receptor (hGR); not active; assay type: functional
T5 sequence (P04150 whole entry): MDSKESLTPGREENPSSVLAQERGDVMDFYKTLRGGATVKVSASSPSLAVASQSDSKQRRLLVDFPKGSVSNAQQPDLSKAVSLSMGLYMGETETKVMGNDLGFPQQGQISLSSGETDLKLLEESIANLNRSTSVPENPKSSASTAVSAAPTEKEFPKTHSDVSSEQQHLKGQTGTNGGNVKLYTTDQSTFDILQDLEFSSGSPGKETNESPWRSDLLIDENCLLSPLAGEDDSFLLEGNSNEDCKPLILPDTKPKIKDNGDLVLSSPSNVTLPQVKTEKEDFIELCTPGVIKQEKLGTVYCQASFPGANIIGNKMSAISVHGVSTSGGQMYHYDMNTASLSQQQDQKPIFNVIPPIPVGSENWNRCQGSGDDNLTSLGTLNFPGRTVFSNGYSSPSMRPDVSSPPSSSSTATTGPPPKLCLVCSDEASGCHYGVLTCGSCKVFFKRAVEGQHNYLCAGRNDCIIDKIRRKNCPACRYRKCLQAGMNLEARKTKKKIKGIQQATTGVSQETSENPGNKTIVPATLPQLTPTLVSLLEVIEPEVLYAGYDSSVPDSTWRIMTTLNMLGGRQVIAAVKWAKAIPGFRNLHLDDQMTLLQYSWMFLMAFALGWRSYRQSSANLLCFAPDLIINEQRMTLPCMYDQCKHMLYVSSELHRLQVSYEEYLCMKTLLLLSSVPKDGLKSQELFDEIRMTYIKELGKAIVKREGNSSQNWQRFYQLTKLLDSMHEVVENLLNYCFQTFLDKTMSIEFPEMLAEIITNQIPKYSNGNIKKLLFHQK

Structure (SMILES)	IC50 (Androgen receptor [1]) [nM]	EC50 (Androgen receptor [2]) [nM]	IC50 (Estrogen receptor [3]) [nM]	Efficacy (Estrogen receptor [4]) [%]	Efficacy [5] [%]	IC50 (Progesterone receptor) [nM]	IC50 (Androgen receptor [6]) [nM]	IC50 (Glucocorticoid receptor) [nM]
O=c1cc(C(F)(F)F)c2cc3c(cc2o1)NCCC3C(F)(F)F (stereo not given)	2	2	> 10000	< 20	68	270	> 10	> 10000
CC1CCNc2cc3oc(=O)cc(C(F)(F)F)c3cc21 (stereo not given)	1	2	> 10000	< 20	83	280	> 10	> 10000
CCC1Nc2cc3oc(=O)cc(C(F)(F)F)c3cc2CC1C (stereo not given)	7	1	> 10000	< 20	88	440	> 10	> 10000
CCCC1CCNc2cc3oc(=O)cc(C(F)(F)F)c3cc21 (stereo not given)	5	5	> 10000	< 20	89	106	> 10	> 10000
CCC1CCNc2cc3oc(=O)cc(C(F)(F)F)c3cc21 (stereo not given)	1	2	> 10000	< 20	91	200	> 10	> 10000
